ChEMBL document CHEMBL3871290, “3-Cyano-6-(5-methyl-3-pyrazoloamino) pyridines (Part 2): A dual inhibitor of Aurora kinase and tubulin polymerization” (Bioorg Med Chem Lett, 2016)
Blank lines part the entries; values can stand above or below the compound they belong to.

Columns and labels:
Aurora kinase A = molecular target: T1, Aurora kinase A (Homo sapiens, UniProt O14965); experiment: Inhibition of recombinant Aurora A kinase derived from human Hela cells using kemptide as substrate in presence of [c-32P]ATP
T1 sequence (O14965 whole entry): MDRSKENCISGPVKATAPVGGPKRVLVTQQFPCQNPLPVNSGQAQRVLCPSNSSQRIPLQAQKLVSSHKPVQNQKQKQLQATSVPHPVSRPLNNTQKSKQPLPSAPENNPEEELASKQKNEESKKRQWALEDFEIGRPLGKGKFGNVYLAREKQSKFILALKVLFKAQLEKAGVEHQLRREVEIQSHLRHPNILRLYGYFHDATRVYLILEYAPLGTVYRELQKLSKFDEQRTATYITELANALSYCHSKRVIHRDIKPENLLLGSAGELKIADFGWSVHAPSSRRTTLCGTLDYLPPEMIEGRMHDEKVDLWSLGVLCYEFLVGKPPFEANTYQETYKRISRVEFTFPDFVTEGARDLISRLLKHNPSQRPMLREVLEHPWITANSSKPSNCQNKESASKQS

Cytochrome P450 2C19 = Cytochrome P450 2C19 (Homo sapiens, UniProt P33261); experiment: Inhibition of CYP2C19 (unknown origin); type: ADME
Sequence of Cytochrome P450 2C19 (P33261 whole entry): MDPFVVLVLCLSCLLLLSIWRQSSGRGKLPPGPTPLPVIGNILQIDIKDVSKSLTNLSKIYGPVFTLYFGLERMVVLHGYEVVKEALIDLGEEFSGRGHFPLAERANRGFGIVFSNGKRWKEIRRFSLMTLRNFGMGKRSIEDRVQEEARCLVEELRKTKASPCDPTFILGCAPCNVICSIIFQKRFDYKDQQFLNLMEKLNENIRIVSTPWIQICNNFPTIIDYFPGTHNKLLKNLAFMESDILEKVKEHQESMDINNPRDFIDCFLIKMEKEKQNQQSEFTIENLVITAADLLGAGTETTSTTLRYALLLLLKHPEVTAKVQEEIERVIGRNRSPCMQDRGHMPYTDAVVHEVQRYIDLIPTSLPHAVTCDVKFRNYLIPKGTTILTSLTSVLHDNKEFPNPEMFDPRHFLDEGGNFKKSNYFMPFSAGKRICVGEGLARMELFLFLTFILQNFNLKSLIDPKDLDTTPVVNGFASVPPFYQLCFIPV

Cytochrome P450 2C9 = Cytochrome P450 2C9 (Homo sapiens, UniProt P11712); experiment: Inhibition of CYP2C9 (unknown origin); type: ADME
Sequence of Cytochrome P450 2C9 (P11712 whole entry): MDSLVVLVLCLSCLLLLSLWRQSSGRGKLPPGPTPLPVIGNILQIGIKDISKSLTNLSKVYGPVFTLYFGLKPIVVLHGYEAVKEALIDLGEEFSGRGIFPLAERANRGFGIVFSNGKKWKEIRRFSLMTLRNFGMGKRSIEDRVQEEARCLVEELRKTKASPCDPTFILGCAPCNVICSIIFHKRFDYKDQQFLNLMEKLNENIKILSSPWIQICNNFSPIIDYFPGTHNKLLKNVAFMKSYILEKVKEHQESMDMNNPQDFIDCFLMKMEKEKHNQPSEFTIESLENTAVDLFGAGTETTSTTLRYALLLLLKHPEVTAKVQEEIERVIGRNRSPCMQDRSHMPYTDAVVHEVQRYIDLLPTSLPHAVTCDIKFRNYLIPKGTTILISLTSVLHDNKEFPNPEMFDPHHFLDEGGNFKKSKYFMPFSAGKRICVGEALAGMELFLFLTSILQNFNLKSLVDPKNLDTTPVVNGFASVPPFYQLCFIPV

CYP2D6 = CYP2D6 (Homo sapiens, UniProt P10635); experiment: (§1) Inhibition of CYP2D6 (unknown origin); type: ADME
Sequence of CYP2D6 (P10635 whole entry): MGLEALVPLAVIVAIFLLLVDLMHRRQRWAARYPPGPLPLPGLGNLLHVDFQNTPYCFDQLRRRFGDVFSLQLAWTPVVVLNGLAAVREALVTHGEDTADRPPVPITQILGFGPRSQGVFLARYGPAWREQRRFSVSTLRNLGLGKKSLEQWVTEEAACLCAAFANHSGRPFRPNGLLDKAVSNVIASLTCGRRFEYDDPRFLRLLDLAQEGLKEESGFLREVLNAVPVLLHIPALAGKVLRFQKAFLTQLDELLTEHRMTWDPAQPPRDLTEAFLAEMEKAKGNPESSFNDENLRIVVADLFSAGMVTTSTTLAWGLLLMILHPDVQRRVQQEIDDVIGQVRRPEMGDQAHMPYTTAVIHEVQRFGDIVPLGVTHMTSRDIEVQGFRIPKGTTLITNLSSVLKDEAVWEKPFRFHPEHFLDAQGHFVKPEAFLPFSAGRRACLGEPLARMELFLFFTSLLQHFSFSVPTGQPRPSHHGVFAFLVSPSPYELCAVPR

Cytochrome P450 1A2 = molecular target: T2, Cytochrome P450 1A2 (Homo sapiens, UniProt P05177); experiment: Inhibition of CYP1A2 (unknown origin); type: ADME
T2 sequence (P05177 whole entry): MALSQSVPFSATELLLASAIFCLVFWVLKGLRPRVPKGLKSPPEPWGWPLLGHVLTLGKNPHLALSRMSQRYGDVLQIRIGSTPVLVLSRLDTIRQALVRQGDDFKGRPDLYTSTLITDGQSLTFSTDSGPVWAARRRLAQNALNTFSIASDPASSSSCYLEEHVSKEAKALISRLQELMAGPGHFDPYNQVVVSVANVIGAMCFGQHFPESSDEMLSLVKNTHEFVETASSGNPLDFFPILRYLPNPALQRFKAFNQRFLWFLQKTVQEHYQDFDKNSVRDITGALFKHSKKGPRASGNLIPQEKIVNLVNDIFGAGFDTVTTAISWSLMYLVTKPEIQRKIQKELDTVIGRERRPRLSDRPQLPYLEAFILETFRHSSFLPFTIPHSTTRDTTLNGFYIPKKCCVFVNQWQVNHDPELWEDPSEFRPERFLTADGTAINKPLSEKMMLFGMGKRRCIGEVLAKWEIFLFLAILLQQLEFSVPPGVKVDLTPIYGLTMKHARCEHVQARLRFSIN

[1] = Cytotoxicity against human HCT116 cells assessed as cell growth inhibition; type: functional; conditions: HCT-116
Aurora kinase B = Aurora kinase B (Homo sapiens, UniProt Q96GD4); experiment: Inhibition of Aurora 1 kinase (unknown origin)
[2] = molecular target: Proto-oncogene tyrosine-protein kinase Src (Homo sapiens, UniProt P12931); experiment: Inhibition of cSRC (unknown origin)
[3] = molecular target: Fibroblast growth factor receptor 1 (Homo sapiens, UniProt P11362); experiment: Inhibition of FGFR1 (unknown origin)
Sequence of Fibroblast growth factor receptor 1 (P11362 whole entry): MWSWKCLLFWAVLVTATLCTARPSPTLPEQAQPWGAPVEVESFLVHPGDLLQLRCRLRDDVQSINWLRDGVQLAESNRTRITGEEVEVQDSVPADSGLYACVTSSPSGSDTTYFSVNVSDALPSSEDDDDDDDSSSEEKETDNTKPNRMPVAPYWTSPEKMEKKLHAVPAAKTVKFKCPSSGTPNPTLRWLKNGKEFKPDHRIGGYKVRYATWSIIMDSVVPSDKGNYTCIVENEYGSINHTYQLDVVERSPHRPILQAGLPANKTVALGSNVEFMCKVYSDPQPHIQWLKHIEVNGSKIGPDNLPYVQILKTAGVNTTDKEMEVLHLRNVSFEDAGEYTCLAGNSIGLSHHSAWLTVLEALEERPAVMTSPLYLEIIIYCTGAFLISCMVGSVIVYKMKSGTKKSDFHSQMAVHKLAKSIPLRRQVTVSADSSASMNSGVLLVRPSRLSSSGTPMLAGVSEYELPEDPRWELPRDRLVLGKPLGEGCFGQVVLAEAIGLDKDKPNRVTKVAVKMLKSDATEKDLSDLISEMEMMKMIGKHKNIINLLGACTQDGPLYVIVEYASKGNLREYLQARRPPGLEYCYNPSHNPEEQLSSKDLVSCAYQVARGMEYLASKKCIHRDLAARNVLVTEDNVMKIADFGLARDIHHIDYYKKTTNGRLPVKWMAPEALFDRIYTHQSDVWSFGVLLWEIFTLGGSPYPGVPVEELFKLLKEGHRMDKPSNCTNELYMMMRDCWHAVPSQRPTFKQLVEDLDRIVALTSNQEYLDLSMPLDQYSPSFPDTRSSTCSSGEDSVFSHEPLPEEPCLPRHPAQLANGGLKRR

[4] = molecular target: Tyrosine-protein kinase Fyn (Homo sapiens, UniProt P06241); experiment: Inhibition of FYN (unknown origin)
Sequence of Tyrosine-protein kinase Fyn (P06241 whole entry): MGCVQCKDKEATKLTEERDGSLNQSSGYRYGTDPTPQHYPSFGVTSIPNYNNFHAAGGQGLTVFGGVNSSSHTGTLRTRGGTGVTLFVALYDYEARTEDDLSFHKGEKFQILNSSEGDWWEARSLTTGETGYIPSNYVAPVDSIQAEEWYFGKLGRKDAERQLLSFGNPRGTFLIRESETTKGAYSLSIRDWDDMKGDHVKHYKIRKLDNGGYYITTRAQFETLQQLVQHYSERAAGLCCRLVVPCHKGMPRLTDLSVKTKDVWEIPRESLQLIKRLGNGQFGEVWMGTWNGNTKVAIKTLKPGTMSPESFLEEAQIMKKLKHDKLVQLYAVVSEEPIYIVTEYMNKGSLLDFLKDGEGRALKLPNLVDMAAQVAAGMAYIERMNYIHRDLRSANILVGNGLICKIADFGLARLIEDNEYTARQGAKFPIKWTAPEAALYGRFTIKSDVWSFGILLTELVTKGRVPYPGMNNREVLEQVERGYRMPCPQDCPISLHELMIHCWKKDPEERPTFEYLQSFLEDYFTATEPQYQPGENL

[5] = molecular target: Vascular endothelial growth factor receptor 2 (Homo sapiens, UniProt P35968); experiment: Inhibition of KDR (unknown origin)
Sequence of Vascular endothelial growth factor receptor 2 (P35968 whole entry): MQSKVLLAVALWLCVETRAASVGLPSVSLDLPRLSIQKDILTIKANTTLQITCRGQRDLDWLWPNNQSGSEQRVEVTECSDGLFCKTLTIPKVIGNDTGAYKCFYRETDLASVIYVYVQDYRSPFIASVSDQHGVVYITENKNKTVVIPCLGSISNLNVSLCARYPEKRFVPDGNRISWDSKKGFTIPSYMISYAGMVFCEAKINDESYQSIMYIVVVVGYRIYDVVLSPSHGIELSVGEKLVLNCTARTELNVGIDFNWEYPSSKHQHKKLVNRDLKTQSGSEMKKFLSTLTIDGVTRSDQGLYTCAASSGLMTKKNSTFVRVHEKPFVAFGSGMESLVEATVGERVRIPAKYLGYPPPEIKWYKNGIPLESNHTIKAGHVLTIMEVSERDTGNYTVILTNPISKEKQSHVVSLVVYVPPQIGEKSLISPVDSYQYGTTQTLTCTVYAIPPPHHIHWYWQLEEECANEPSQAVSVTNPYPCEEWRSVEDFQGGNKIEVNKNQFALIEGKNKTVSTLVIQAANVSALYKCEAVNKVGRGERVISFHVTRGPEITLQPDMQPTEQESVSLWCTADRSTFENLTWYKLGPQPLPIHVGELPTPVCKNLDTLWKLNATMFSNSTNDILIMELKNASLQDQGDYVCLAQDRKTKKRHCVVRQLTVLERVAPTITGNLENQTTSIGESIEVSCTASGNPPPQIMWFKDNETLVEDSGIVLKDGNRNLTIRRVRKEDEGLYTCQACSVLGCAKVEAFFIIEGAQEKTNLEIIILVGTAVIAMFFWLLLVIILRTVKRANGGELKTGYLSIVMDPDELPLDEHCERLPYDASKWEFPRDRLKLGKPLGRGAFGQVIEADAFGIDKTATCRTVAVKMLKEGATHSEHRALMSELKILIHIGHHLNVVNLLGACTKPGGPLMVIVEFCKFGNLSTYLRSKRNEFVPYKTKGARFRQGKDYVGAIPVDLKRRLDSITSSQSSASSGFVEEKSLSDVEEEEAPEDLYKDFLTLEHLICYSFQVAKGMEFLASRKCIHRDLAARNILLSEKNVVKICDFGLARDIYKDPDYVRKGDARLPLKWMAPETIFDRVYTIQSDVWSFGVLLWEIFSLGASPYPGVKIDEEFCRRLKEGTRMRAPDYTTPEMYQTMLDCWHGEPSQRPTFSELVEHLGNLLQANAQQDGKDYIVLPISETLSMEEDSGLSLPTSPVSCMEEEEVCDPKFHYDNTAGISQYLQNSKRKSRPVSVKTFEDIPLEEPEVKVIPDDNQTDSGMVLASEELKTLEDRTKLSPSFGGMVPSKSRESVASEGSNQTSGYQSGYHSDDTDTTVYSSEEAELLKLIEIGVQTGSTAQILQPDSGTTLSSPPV

[6] = molecular target: Tyrosine-protein kinase Lyn (Homo sapiens, UniProt P07948); experiment: Inhibition of LYN (unknown origin)
[7] = molecular target: Tyrosine-protein kinase Yes (Homo sapiens, UniProt P07947); experiment: Inhibition of YES (unknown origin)
[8] = Antitumor activity against human HCT116 cells xenografted subcutaneously in mouse assessed as tumor growth inhibition at 30 mg/kg, po qd after 14 days; type: functional; conditions: HCT-116, 336 h, read-out: TGI
[9] = AUC in rat at 30 mg/kg, po; type: ADME, organism-based; conditions: in vivo
[10] = Tmax in rat at 30 mg/kg, po; type: ADME, organism-based; conditions: in vivo
[11] = Cmax in rat at 30 mg/kg, po; type: ADME, organism-based; design: dose 30 mg/kg, route oral; conditions: in vivo
Cytochrome P450 3A4 = Cytochrome P450 3A4 (Homo sapiens, UniProt P08684); experiment: Inhibition of CYP3A4 (unknown origin); type: ADME
Sequence of Cytochrome P450 3A4 (P08684 whole entry): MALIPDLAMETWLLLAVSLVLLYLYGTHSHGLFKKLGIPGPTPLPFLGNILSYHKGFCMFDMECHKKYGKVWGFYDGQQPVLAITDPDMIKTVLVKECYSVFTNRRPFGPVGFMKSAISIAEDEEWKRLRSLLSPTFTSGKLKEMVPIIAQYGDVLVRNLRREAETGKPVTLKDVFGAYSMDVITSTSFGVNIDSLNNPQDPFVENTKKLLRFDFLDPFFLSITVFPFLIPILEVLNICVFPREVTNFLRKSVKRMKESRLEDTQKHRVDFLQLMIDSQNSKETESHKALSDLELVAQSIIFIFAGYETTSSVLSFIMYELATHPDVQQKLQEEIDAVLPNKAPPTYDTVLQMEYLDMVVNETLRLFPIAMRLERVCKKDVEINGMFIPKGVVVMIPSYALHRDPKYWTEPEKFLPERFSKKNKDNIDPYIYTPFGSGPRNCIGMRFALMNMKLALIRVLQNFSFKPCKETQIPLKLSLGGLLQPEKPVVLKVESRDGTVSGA

Cytochrome P450 2D6 = Cytochrome P450 2D6 (Homo sapiens, UniProt P10635); experiment: as §1; type: ADME
Sequence of Cytochrome P450 2D6 (P10635 whole entry): as the sequence (P10635 whole entry) above

[12] = Antitumor activity against human PC3 cells xenografted subcutaneously in mouse assessed as tumor growth inhibition at 30 mg/kg, po qd for 14 days; type: functional; conditions: PC-3, 336 h, read-out: TGI
[13] = Antitumor activity against mouse CT26 cells allografted subcutaneously in mouse assessed as tumor growth inhibition at 30 mg/kg, po qd for 14 days; type: functional; conditions: CT26, 336 h, read-out: TGI
[14] = Antitumor activity against human HCT116 cells xenografted subcutaneously in mouse assessed as tumor growth inhibition at 40 mg/kg, po qd administered on day 1, 5, 9, 13, 16 relative to control; type: functional; conditions: HCT-116, read-out: TGI
[15] = Antitumor activity against human HCT116 cells xenografted subcutaneously in mouse assessed as tumor growth inhibition at 20 mg/kg, po qd administered on day 1, 5, 9, 13, 16 relative to control; type: functional; conditions: HCT-116, read-out: TGI
Mus musculus = experiment: Toxicity in mouse allografted subcutaneously with mouse CT26 cells assessed as mortality at 30 mg/kg, ip qd for 14 days; type: organism-based; conditions: in vivo, 336 h
[16] = Antitumor activity against mouse CT26 cells allografted subcutaneously in mouse assessed as tumor growth inhibition at 25 mg/kg, ip qd for 14 days; type: functional; conditions: CT26, 336 h, read-out: TGI

Ki (Aurora kinase A): < 1 nM
IC50 (Cytochrome P450 3A4): 1600 nM
IC50 (Cytochrome P450 2D6): 7700 nM
IC50 (Cytochrome P450 1A2): < 400 nM
SMILES: Cc1cc(Nc2cc(C)c(C#N)c(NCCOc3ccccc3F)n2)n[nH]1
GI50 [1]: 26 nM

IC50 (Cytochrome P450 3A4): < 400 nM
IC50 (Cytochrome P450 2D6): 9900 nM
IC50 (Cytochrome P450 1A2): 700 nM
SMILES: Cc1cc(Nc2cc(C)c(C#N)c(NCCOc3cccnc3)n2)n[nH]1
GI50 [1]: 2 nM

Ki (Aurora kinase A): 29 nM
IC50 (Cytochrome P450 3A4): < 400 nM
IC50 (Cytochrome P450 2D6): 2000 nM
IC50 (Cytochrome P450 1A2): < 400 nM
SMILES: Cc1cc(Nc2cc(C)c(C#N)c(NCCOc3ccncc3)n2)n[nH]1
GI50 [1]: 120 nM

Ki (Aurora kinase A): 2 nM
IC50 (Cytochrome P450 3A4): 1400 nM
IC50 (Cytochrome P450 2D6): 7200 nM
IC50 (Cytochrome P450 1A2): < 400 nM
SMILES: Cc1cc(Nc2cc(C)c(C#N)c(NCCOc3ccccc3)n2)n[nH]1
GI50 [1]: 11 nM

IC50 (Cytochrome P450 2C19): < 400 nM
IC50 (Cytochrome P450 2C9): < 200 nM
IC50 (Cytochrome P450 3A4): 1200 nM
IC50 (Cytochrome P450 2D6): 6500 nM
IC50 (Cytochrome P450 1A2): 500 nM
SMILES: Cc1cc(Nc2cc(C)c(C#N)c(NCCOc3ccccc3Cl)n2)n[nH]1
GI50 [1]: 9 nM

More lines, now with the values behind:

SMILES: Cc1cc(Nc2cc(C)c(C#N)c(N[C@@H](C)CCCC(C)(C)O)n2)n[nH]1
Ki (Aurora kinase A): < 1 nM
IC50 (Cytochrome P450 2C19): < 400 nM
IC50 (Cytochrome P450 2C9): 1700 nM
IC50 (CYP2D6): < 50000 nM
IC50 (Cytochrome P450 1A2): 55000 nM
GI50 [1]: 52 nM

SMILES: Cc1ccc(OCCNc2nc(Nc3cc(C)[nH]n3)cc(C)c2C#N)cn1
Ki (Aurora kinase A): 4 nM
Ki (Aurora kinase B): 10 nM
Ki [2]: 480 nM
Ki [3]: 80 nM
Ki [4]: 80 nM
Ki [5]: 590 nM
Ki [6]: 490 nM
Ki [7]: 79 nM
inhibition in vivo at 30 mg/kg [8]: 81.9%
AUC [9]: 14.6 µg/mL
Tmax [10]: 15 min
Cmax [11]: 19600 ng/mL
IC50 (Cytochrome P450 2C19): 4500 nM
IC50 (Cytochrome P450 2C9): 4900 nM
IC50 (Cytochrome P450 3A4): 4500 nM
IC50 (Cytochrome P450 2D6): > 50000 nM
IC50 (Cytochrome P450 1A2): 2000 nM
GI50 [1]: 1 nM
inhibition in vivo at 30 mg/kg [12]: 85%
inhibition in vivo at 30 mg/kg [13]: 47.8%
inhibition in vivo at 40 mg/kg [14]: 71%
inhibition in vivo at 20 mg/kg [15]: 44%

SMILES: Cc1cc(Nc2cc(C)c(C#N)c(NCCOc3ccccn3)n2)n[nH]1
IC50 (Cytochrome P450 3A4): 7200 nM
IC50 (Cytochrome P450 2D6): 29000 nM
IC50 (Cytochrome P450 1A2): < 400 nM
GI50 [1]: 67 nM

SMILES: CCc1ccc(OCCNc2nc(Nc3cc(C)[nH]n3)cc(C)c2C#N)cn1
Ki (Aurora kinase A): 6 nM
IC50 (Cytochrome P450 2C19): 800 nM
IC50 (Cytochrome P450 2C9): 1400 nM
IC50 (Cytochrome P450 3A4): 1600 nM
IC50 (Cytochrome P450 2D6): 46000 nM
IC50 (Cytochrome P450 1A2): 1400 nM
GI50 [1]: 66 nM

SMILES: Cc1cc(Nc2cc(C)c(C#N)c(NCCOc3cccnc3C)n2)n[nH]1
IC50 (Cytochrome P450 2C19): 900 nM
IC50 (Cytochrome P450 2C9): 2400 nM
IC50 (Cytochrome P450 3A4): 1800 nM
IC50 (Cytochrome P450 2D6): > 50000 nM
IC50 (Cytochrome P450 1A2): 5500 nM
GI50 [1]: 4 nM

SMILES: Cc1ccc(OCCNc2nc(Nc3cc(C)[nH]n3)cc(C)c2C#N)c(C)n1
IC50 (Cytochrome P450 2C19): 1700 nM
IC50 (Cytochrome P450 2C9): 3500 nM
IC50 (Cytochrome P450 3A4): 1700 nM
IC50 (Cytochrome P450 2D6): > 50000 nM
IC50 (Cytochrome P450 1A2): > 50000 nM
GI50 [1]: 37 nM

SMILES: CC(=O)O[C@H]1C(=O)[C@@]2(C)[C@H]([C@H](OC(=O)c3ccccc3)[C@]3(O)C[C@H](OC(=O)[C@H](O)[C@@H](NC(=O)c4ccccc4)c4ccccc4)C(C)=C1C3(C)C)[C@]1(OC(C)=O)CO[C@@H]1C[C@@H]2O [PACLITAXEL]
Activity (Mus musculus): Toxic
inhibition in vivo at 25 mg/kg [16]: 24.8%
